Test results published in publication PMC8776894 (Communications Biology, 2022).

Legend:
mice = test: Histological analysis (H&E) of organs in acute toxicity test; type: in vivo, mouse
Protocol: Histological analysis. Organs such as heart, liver, kidney, and brain were excised and fixed in 10% formaldehyde for histological analysis. Their organs were collected and fixed with 4% PFA for 12-18 h, followed by dehydrating using an automatic dehydrator (Leica ASP-300S, Germany) and embedding in paraffin. Then, each sample was coronally cut (4 µm) using a rotatory microtome (Leica RM2245, Germany). The […]
Primary culture of neuron and microglia. Primary cortical neurons (1.0 × 10^5 cells per well in poly-L-lysine-coated 24-well plate) were obtained from fetal C57BL/6 mice of embryonic day 16–17.5, as previously reported1. After careful removal of meninges, cortical tissues were digested in dulbecco's modified eagle medium (DMEM, Gibco) containing 0.05% trypsin (Gibco) at 37 °C for 20 min. DMEM containing 10% FBS (Gibco) was then added to terminate the digestion. The mixture was homogenized by pipetting 120 times and was subsequently filtered with a 100-μm cell strainer (Biologix) and centrifuged at 1000 rpm for 5 min. Then, the cells were collected and resuspended by DMEM supplemented with 10% FBS (Gibco) and penicillin-streptomycin (Gibco).
The suspension was seeded into 24-well plates (10^5 cells/ml), and 4 h later, the medium was changed with Neurobasal medium (Gibco) containing 1% […] and 2% B27 supplement. […]

[1] = tested on: 17 phosphorylation sites, prefrontal cortex lysate; test: Phospho antibody microarray; type: in vivo, mouse
Protocol: Protein phosphorylation detection was performed with a Phospho Explorer Antibody Array (Catalog number AAM-APOSIG-1-8, Ray Biotech, USA), allowing for the examination of 17 phosphorylation sites (three replicates per antibody). Whole-cell lysates from the prefrontal cortex in mice after MCAO/R and VK-treated, and the assay was performed according to the manufacturer’s protocol.

HT22 cells (OGD/R) = test: Seahorse O2 consumption rate (OCR); type: cell-based, mouse; conditions: dose-dependent
Protocol: HT22 cells were counted and plated at 8000 cells per well in a Seahorse XF96 Cell Culture Microplate for all experiments (Agilent). They were then treated with VK (0.0735 or 0.735 μM) for 24 h. […] Next, HT22 cells were washed after 24 h of incubation and were incubated in a 0% CO2 chamber at 37 °C for 1 h, before being placed into a Seahorse XFe96 Analyzer (Agilent). In OCR experiment, HT22 cells were treated, with 2 μM of oligomycin, 5 μM of FCCP, and 1 μM of rotenone and antimycin, respectively; to assess ECAR, they were treated with 1 μM of rotenone and antimycin and 50 mM of 2-DG. All OCR and ECAR data were normalized to cell number per well using WAVE (Agilent).

[2] = Group2(VK 150) VS Group1(VK 300)
[3] = Group2(VK 150) VS Group3(Sham), AveExp.Group3 minus AveExp.Group2
[4] = Group4(Vehicle) VS Group1(VK 300)
[5] = Group4(Vehicle) VS Group2(VK 150)
[6] = Vehicle vs VK headed 150 mg/kg, Regulation up
[7] = Vehicle vs VK headed 300mg/kg, Regulation up

## Gly-Arg-Pro-Hyp-Gly-Phe-Ser-Pro-Phe-Arg-Ile-Asp [VK, Vespakinin-M]
mice; VK 96 and 384 mg/kg single i.p.
  karyopyknosis and cellular swelling of hepatocytes in liver: moderate
mice; all treated groups after 14 days, H&E
  histopathology of brain, liver and kidney vs control: no changes at the cellular level
[1]; [2]
  AKT(S473) logFC: 0.1681
  ATM(S1981) logFC: 0.4433
  BAD(S112) logFC: 0.1628
  CHK1 (S296) logFC: 0.118
  Casp3(D175) logFC: 0.2616
  Casp7(D198) logFC: 0.356
  Erk1/2(T202) logFC: 0.2636
  IkBa (S32) logFC: -0.1062
  JNK(T183) logFC: 0.1152
  NFKB(S536) logFC: 0.07606
  P27(T198) logFC: -0.02206
  P38(T180/Y182) logFC: 0.08158
  P53(S15) logFC: -0.02082
  SMAD2(S245) logFC: 0.2566
  TAK1(S412) logFC: 0.04657
  eIF2a (S51) logFC: 0.3172
  hsp27(S82) logFC: 0.2446
[1]; [3]
  AKT(S473) logFC: 0.1633
  ATM(S1981) logFC: 0.1496
  BAD(S112) logFC: 0.121
  CHK1 (S296) logFC: 0.2057
  Casp3(D175) logFC: 0.09625
  Casp7(D198) logFC: 0.03142
  Erk1/2(T202) logFC: 0.1043
  IkBa (S32) logFC: 0.1056
  JNK(T183) logFC: 0.02185
  NFKB(S536) logFC: -0.02812
  P27(T198) logFC: 0.08521
  P38(T180/Y182) logFC: -0.03282
  P53(S15) logFC: 0.03719
  SMAD2(S245) logFC: 0.04639
  TAK1(S412) logFC: 0.09444
  eIF2a (S51) logFC: 0.1069
  hsp27(S82) logFC: 0.06748
[1]; Group3(Sham) VS Group1(VK 300)
  AKT(S473) logFC: 0.3314
  ATM(S1981) logFC: 0.5929
  BAD(S112) logFC: 0.2838
  CHK1 (S296) logFC: 0.3237
  Casp3(D175) logFC: 0.3578
  Casp7(D198) logFC: 0.3874
  Erk1/2(T202) logFC: 0.3679
  IkBa (S32) logFC: -0.0006282
  JNK(T183) logFC: 0.137
  NFKB(S536) logFC: 0.04795
  P27(T198) logFC: 0.06315
  P38(T180/Y182) logFC: 0.04876
  P53(S15) logFC: 0.01637
  SMAD2(S245) logFC: 0.303
  TAK1(S412) logFC: 0.141
  eIF2a (S51) logFC: 0.4241
  hsp27(S82) logFC: 0.3121
[1]; [4]
  CHK1 (S296) logFC: 0.6052
  Casp7(D198) logFC: 0.6994
  Erk1/2(T202) logFC: 0.4686
  IkBa (S32) logFC: 0.671
  JNK(T183) logFC: 0.4121
  NFKB(S536) logFC: 0.4222
  P38(T180/Y182) logFC: 0.4307
  hsp27(S82) logFC: 0.386
  logFC AKT(S473): 0.1073
  logFC ATM(S1981): 0.3928
  logFC BAD(S112): 0.3454
  logFC Casp3(D175): 0.3417
  logFC P27(T198): 0.1337
  logFC P53(S15): 0.1112
  logFC SMAD2(S245): 0.1323
  logFC TAK1(S412): 0.1801
  logFC eIF2a (S51): 0.3444
[1]; [5]
  logFC AKT(S473): -0.06086
  logFC ATM(S1981): -0.05046
  logFC BAD(S112): 0.1826
  logFC CHK1 (S296): 0.4872
  logFC Casp3(D175): 0.08018
  logFC Casp7(D198): 0.3435
  logFC Erk1/2(T202): 0.205
  logFC IkBa (S32): 0.7772
  logFC JNK(T183): 0.2969
  logFC NFKB(S536): 0.3462
  logFC P27(T198): 0.1557
  logFC P38(T180/Y182): 0.3491
  logFC P53(S15): 0.132
  logFC SMAD2(S245): -0.1242
  logFC TAK1(S412): 0.1335
  logFC eIF2a (S51): 0.02722
  logFC hsp27(S82): 0.1414
[1]; VK 150 µg/kg, MCAO/R mice
  levels of IκBa (S32), CHK1 (S296), NF-κB (S536), p38 (T180/Y182), Casp7 (D198), JNK(T183) vs vehicle: clearly decreased levels
[1]; VK group headed 150 mg/kg
  NFκB(S536) AveExp. Group2: 11
[1]; VK group headed 150 mg/kg (text 150 µg/kg)
  IκBa (S32) AveExp. Group2: 10.95
[1]; VK group headed 300mg/kg
  NFκB(S536) AveExp. Group1: 10.93
[1]; VK group headed 300mg/kg (text 300 µg/kg)
  IκBa (S32) AveExp. Group1: 11.05
[1]; Vehicle (Group4) vs VK headed 150 mg/kg, Regulation up
  IκBa (S32) logFC: 0.7772
[1]; Vehicle (Group4) vs VK headed 300mg/kg, Regulation up
  IκBa (S32) logFC: 0.671
[1]; [6]
  Casp7(D198) logFC: 0.3435
  JNK(T183) logFC: 0.2969
  NFκB(S536) logFC: 0.3462
[1]; [7]
  ATM(S1981) logFC: 0.3928
  BAD(S112) logFC: 0.3454
  CHK1 (S296) logFC: 0.6052
  Casp3(D175) logFC: 0.3417
  Casp7(D198) logFC: 0.6994
  Erk1/2(T202) logFC: 0.4686
  JNK(T183) logFC: 0.4121
  NFκB(S536) logFC: 0.4222
  P38(T180/Y182) logFC: 0.4307
  eIF2a (S51) logFC: 0.3444
  hsp27(S82) logFC: 0.386
HT22 cells (OGD/R)
  mitochondrial oxygen consumption rate in neurons: accelerated the mitochondrial oxygen consumption rate
